According to BindingDB's records for doi:10.1021/jm960324r (1996):

System: Herpes simplex virus (HSV) ribonucleotide reductase (RR) enzyme
Assay: Inhibitory effect was evaluated on Herpes simplex virus (HSV) ribonucleotide reductase (RR) enzyme.

IC50: 20 nM
Structure (SMILES): CC(C)C[C@@H](NC(=O)[C@@H](CC(=O)O)NC(=O)[C@H](CC(=O)N1CCCC1)NC(=O)[C@H](NC(=O)NC1[C@@H](C)CCC[C@@H]1C)C(C)C)C(=O)O
